# Patent US20060035942A1, “Fungicidal combinations of active substances” (priority 2002, published 2006)
# Tested on: Pyrenophora teres
# Assay: Pyrenophora teres test (barley)/curative
# Type: in vivo
# Details: curative, application rate 100 g/ha, evaluation 7 days after inoculation
# Description: Pyrenophora teres Test (Barley)/Curative • Solvent: 25 parts by weight of N,N-dimethylacetamide • Emulsifier: 0.6 part by weight of alkylaryl polyglycol ether To produce a suitable preparation of active compound, 1 part by weight of active compound is mixed with the stated amounts of solvent and emulsifier, and the concentrate is diluted with water to the desired concentration. To test for curative activity, young plants are sprayed with a conidia suspension of Pyrenophora teres. The plants remain in an incubation cabin at 20° C. and 100% relative atmospheric humidity for 48 hours. The plants are then sprayed with the preparation of active compound at the stated application rate. The plants are placed in a greenhouse at a temperature of about 20° C. and a relative atmospheric humidity of about 80%. Evaluation is carried out 7 days after the inoculation. 0% means an efficacy which corresponds to that of the control, whereas an efficacy of 100% means that no infection is observed.
row,Structure (SMILES),Efficacy in % [%]
1,CON=C(C(=O)OC)c1ccccc1CO/N=C(\C)c1cccc(C(F)(F)F)c1 [Ex. (I)],67
2,OC(Cc1ccccc1Cl)(Cn1nc[nH]c1=S)C1(Cl)CC1 (stereo not drawn) [Ex. (II)],56
3,CC(C)(C)C(O)(CCc1ccc(Cl)cc1)Cn1cncn1 (stereo not drawn) [Ex. (III)],22
